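Five compound concentrations were applied to cells in 96-well plates for 48 hours; endpoints were derived by simple linear interpolation of the resulting dose-response curve. At the TGI there is no net growth.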
Experiments:
Assay in all cases: DTP human tumour cell line panel, 48 h
[1] = tested on: HL-60(TB) leukemia
[2] = tested on: RPMI-8226 leukemia
[3] = tested on: M14 melanoma
[4] = tested on: TK-10 renal
[5] = tested on: SR leukemia
[6] = tested on: 786-0 renal
[7] = tested on: OVCAR-5 ovarian
[8] = tested on: OVCAR-8 ovarian
[9] = tested on: KM12 colon
[10] = tested on: SF-268 CNS
[11] = tested on: HT29 colon
[12] = tested on: HOP-92 NSCLC
[13] = tested on: OVCAR-3 ovarian
[14] = tested on: NCI-H226 lung
[15] = tested on: HS 578T breast
[16] = tested on: MCF7 breast
[17] = tested on: CAKI-1 renal
[18] = tested on: T-47D breast
[19] = tested on: ACHN renal
[20] = tested on: SK-OV-3 ovarian
[21] = tested on: A498 renal
[22] = tested on: K-562 leukemia
[23] = tested on: HOP-62 NSCLC
[24] = tested on: UACC-62 melanoma
[25] = tested on: MOLT-4 leukemia
[26] = tested on: SN12C renal
[27] = tested on: MDA-MB-231 breast
[28] = tested on: EKVX NSCLC
[29] = tested on: SF-539 CNS
[30] = tested on: MDA-N
[31] = tested on: HCT-116 colon
[32] = tested on: SNB-19 CNS
[33] = tested on: LOX IMVI melanoma
[34] = tested on: SW-620 colon
[35] = tested on: SNB-75 CNS
[36] = tested on: MDA-MB-435
[37] = tested on: NCI-H460 lung
[38] = tested on: MALME-3M melanoma
[39] = tested on: PC-3 prostate
[40] = tested on: RXF 393 renal
[41] = tested on: U251 CNS
[42] = tested on: SF-295 CNS
[43] = tested on: DU-145 prostate
[44] = tested on: CCRF-CEM leukemia
[45] = tested on: HCC-2998 colon
[46] = tested on: A549 NSCLC
[47] = tested on: SK-MEL-2 melanoma
[48] = tested on: NCI-H522 lung
[49] = tested on: COLO 205 colon
[50] = tested on: NCI/ADR-RES ovarian
[51] = tested on: BT-549 breast
[52] = tested on: SK-MEL-5 melanoma
[53] = tested on: OVCAR-4 ovarian
[54] = tested on: UACC-257 melanoma
[55] = tested on: NCI-H23 lung
[56] = tested on: SK-MEL-28 melanoma
[57] = tested on: IGROV1 ovarian
[58] = tested on: HCT-15 colon
[59] = tested on: LXFL 529 NSCLC
[60] = tested on: UO-31 renal
[61] = tested on: DMS 273 small cell lung
[62] = tested on: DMS 114 small cell lung
[63] = tested on: HOP-18 NSCLC
[64] = tested on: DLD-1 colon
[65] = tested on: M19-MEL melanoma
[66] = tested on: KM20L2 colon

Cn1cncc1CC1COC(=O)C1C(O)c1ccccc1 (centres undefined)
TGI [1]: > 100 µM
TGI [2]: > 100 µM
TGI [3]: > 100 µM
TGI [4]: > 100 µM
TGI [5]: > 100 µM
TGI [6]: > 100 µM
TGI [7]: > 100 µM
TGI [8]: > 100 µM
TGI [9]: > 100 µM
TGI [10]: > 100 µM
TGI [11]: > 100 µM
TGI [12]: > 100 µM
TGI [13]: > 100 µM
TGI [14]: > 100 µM
TGI [15]: > 100 µM
TGI [16]: > 100 µM
TGI [17]: > 100 µM
TGI [18]: > 100 µM
TGI [19]: > 100 µM
TGI [20]: > 100 µM
TGI [21]: > 100 µM
TGI [22]: > 100 µM
TGI [23]: > 100 µM
TGI [24]: > 100 µM
TGI [25]: > 100 µM
TGI [26]: > 100 µM
TGI [27]: > 100 µM
TGI [28]: > 100 µM
TGI [29]: > 100 µM
TGI [30]: > 100 µM
TGI [31]: > 100 µM
TGI [32]: > 100 µM
TGI [33]: > 100 µM
TGI [34]: > 100 µM
TGI [35]: > 100 µM
TGI [36]: > 100 µM
TGI [37]: > 100 µM
TGI [38]: > 100 µM
TGI [39]: > 100 µM
TGI [40]: > 100 µM
TGI [41]: > 100 µM
TGI [42]: > 100 µM
TGI [43]: > 100 µM
TGI [44]: > 100 µM
TGI [45]: > 100 µM
TGI [46]: > 100 µM
TGI [47]: > 100 µM
TGI [48]: > 100 µM
TGI [49]: > 100 µM
TGI [50]: > 100 µM
TGI [51]: > 100 µM
TGI [52]: > 100 µM
TGI [53]: > 100 µM
TGI [54]: > 100 µM
TGI [55]: > 100 µM
TGI [56]: > 100 µM
TGI [57]: > 100 µM
TGI [58]: > 100 µM

CN(C)c1ccc(/C=C2\C=Cc3ccccc32)cc1
TGI [1]: > 100 µM
TGI [59]: > 100 µM
TGI [2]: > 100 µM
TGI [60]: > 100 µM
TGI [3]: > 100 µM
TGI [4]: > 100 µM
TGI [5]: > 100 µM
TGI [6]: > 100 µM
TGI [7]: > 100 µM
TGI [8]: > 100 µM
TGI [9]: > 100 µM
TGI [61]: > 100 µM
TGI [10]: > 100 µM
TGI [62]: 89.6 µM
TGI [11]: > 100 µM
TGI [63]: > 100 µM
TGI [12]: > 100 µM
TGI [13]: > 100 µM
TGI [17]: > 100 µM
TGI [19]: > 100 µM
TGI [20]: > 100 µM
TGI [21]: > 100 µM
TGI [22]: > 100 µM
TGI [23]: > 100 µM
TGI [24]: > 100 µM
TGI [25]: > 100 µM
TGI [26]: > 100 µM
TGI [29]: > 100 µM
TGI [31]: > 100 µM
TGI [32]: > 100 µM
TGI [33]: > 100 µM
TGI [34]: > 100 µM
TGI [35]: 57 µM
TGI [37]: > 100 µM
TGI [38]: > 100 µM
TGI [40]: 84.4 µM
TGI [41]: > 100 µM
TGI [42]: > 100 µM
TGI [44]: > 100 µM
TGI [45]: > 100 µM
TGI [46]: > 100 µM
TGI [47]: > 100 µM
TGI [48]: 52.3 µM
TGI [49]: > 100 µM
TGI [52]: > 100 µM
TGI [53]: > 100 µM
TGI [55]: > 100 µM
TGI [64]: > 100 µM
TGI [65]: > 100 µM
TGI [56]: > 100 µM
TGI [57]: > 100 µM
TGI [58]: > 100 µM
TGI [66]: > 100 µM

Cc1ccc(/C=C2\CCCC(CN3CCCCC3)C2=O)cc1 (centres undefined)
TGI [1]: > 100 µM
TGI [2]: > 100 µM
TGI [60]: 3.58 µM
TGI [4]: 7.44 µM
TGI [5]: > 100 µM
TGI [6]: 4.02 µM
TGI [7]: 28.7 µM
TGI [8]: 6.79 µM
TGI [9]: 2.72 µM
TGI [10]: 4.07 µM
TGI [11]: 3.28 µM
TGI [12]: 4.04 µM
TGI [13]: 3.39 µM
TGI [14]: 5.99 µM
TGI [15]: 6.59 µM
TGI [16]: 2.1 µM
TGI [17]: 3.19 µM
TGI [18]: 3.41 µM
TGI [19]: 16.4 µM
TGI [20]: 30.1 µM
TGI [21]: 26.1 µM
TGI [22]: > 100 µM
TGI [23]: 35.4 µM
TGI [24]: 16.4 µM
TGI [25]: > 100 µM
TGI [26]: 8.4 µM
TGI [27]: 3.34 µM
TGI [28]: 32.7 µM
TGI [29]: 15.6 µM
TGI [30]: 7.78 µM
TGI [31]: 3.26 µM
TGI [32]: 29.6 µM
TGI [33]: 3.29 µM
TGI [34]: 3.14 µM
TGI [35]: 17.7 µM
TGI [36]: 3.81 µM
TGI [37]: 15.9 µM
TGI [38]: 5.98 µM
TGI [39]: 5.74 µM
TGI [40]: 3.15 µM
TGI [41]: 27.3 µM
TGI [42]: 30.9 µM
TGI [43]: 23.9 µM
TGI [44]: 3.03 µM
TGI [45]: 28.9 µM
TGI [46]: 33.1 µM
TGI [47]: 9.91 µM
TGI [48]: 3.22 µM
TGI [49]: 3.25 µM
TGI [50]: 42.5 µM
TGI [51]: 4.84 µM
TGI [52]: 17.4 µM
TGI [53]: 3.62 µM
TGI [54]: 4.02 µM
TGI [55]: 4.86 µM
TGI [56]: 3.22 µM
TGI [57]: 3.72 µM
TGI [58]: 4.3 µM

Reference: PubChem BioAssay (NCI)
